Data taken from ChEMBL document CHEMBL2321647 (ACS Med Chem Lett, 2013).

Assays:
Histone deacetylase 1 = Histone deacetylase 1 (Homo sapiens, UniProt Q13547); test: Inhibition of C-terminal His-tagged and C-terminal FLAG-tagged full length human recombinant HDAC1 expressed in baculovirus expression system using fluorogenic acetylated peptide as substrate preincubated with enzyme for 10 mins prior to substrate addition measured after 60 mins by fluorescence analysis
Histone deacetylase 3 = Histone deacetylase 3 (Homo sapiens, UniProt O15379); test: Inhibition of C-terminal His-tagged full length human recombinant HDAC3 co-expressed with NcoR2 in baculovirus expression system using fluorogenic acetylated peptide as substrate preincubated with enzyme for 10 mins prior to substrate addition measured after 60 mins by fluorescence analysis
Histone deacetylase 9 = Histone deacetylase 9 (Homo sapiens, UniProt Q9UKV0); test: Inhibition of C-terminal His-tagged human recombinant HDAC9 (amino acids 604- 1066) expressed in baculovirus expression system using fluorogenic acetylated peptide as substrate preincubated with enzyme for 10 mins prior to substrate addition measured after 60 mins by fluorescence analysis
Histone deacetylase 2 = Histone deacetylase 2 (Homo sapiens, UniProt Q92769); test: Inhibition of C-terminal His-tagged full length human recombinant HDAC2 expressed in baculovirus expression system using fluorogenic acetylated peptide as substrate preincubated with enzyme for 10 mins prior to substrate addition measured after 60 mins by fluorescence analysis
Histone deacetylase 2, sequence (Q92769 whole entry): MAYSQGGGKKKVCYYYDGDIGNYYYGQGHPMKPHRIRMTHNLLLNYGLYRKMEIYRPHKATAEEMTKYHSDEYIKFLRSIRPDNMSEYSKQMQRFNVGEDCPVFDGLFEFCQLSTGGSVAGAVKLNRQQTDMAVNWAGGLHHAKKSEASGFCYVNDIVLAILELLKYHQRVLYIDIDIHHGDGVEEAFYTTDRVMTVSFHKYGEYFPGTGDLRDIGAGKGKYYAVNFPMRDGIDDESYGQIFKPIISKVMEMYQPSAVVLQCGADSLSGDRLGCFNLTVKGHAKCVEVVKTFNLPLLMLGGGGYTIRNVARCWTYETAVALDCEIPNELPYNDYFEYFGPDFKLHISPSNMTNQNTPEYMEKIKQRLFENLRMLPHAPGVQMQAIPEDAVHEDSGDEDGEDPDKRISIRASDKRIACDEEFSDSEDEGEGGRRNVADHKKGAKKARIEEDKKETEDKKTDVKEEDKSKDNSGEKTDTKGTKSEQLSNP

Histone deacetylase 3, sequence (O15379 whole entry, the tested form may be a part): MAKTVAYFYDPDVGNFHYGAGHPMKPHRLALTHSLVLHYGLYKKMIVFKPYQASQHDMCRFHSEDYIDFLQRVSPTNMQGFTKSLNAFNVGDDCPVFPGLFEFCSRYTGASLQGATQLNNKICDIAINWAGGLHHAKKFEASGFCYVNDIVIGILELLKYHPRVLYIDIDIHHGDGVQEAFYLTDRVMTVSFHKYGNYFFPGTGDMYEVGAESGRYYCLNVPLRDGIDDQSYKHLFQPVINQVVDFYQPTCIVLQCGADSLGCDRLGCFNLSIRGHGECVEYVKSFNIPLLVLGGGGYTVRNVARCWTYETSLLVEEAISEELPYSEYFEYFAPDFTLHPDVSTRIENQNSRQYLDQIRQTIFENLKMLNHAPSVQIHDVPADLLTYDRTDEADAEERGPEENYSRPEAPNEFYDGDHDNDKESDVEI
Histone deacetylase 9, sequence (Q9UKV0 whole entry, the tested form may be a part): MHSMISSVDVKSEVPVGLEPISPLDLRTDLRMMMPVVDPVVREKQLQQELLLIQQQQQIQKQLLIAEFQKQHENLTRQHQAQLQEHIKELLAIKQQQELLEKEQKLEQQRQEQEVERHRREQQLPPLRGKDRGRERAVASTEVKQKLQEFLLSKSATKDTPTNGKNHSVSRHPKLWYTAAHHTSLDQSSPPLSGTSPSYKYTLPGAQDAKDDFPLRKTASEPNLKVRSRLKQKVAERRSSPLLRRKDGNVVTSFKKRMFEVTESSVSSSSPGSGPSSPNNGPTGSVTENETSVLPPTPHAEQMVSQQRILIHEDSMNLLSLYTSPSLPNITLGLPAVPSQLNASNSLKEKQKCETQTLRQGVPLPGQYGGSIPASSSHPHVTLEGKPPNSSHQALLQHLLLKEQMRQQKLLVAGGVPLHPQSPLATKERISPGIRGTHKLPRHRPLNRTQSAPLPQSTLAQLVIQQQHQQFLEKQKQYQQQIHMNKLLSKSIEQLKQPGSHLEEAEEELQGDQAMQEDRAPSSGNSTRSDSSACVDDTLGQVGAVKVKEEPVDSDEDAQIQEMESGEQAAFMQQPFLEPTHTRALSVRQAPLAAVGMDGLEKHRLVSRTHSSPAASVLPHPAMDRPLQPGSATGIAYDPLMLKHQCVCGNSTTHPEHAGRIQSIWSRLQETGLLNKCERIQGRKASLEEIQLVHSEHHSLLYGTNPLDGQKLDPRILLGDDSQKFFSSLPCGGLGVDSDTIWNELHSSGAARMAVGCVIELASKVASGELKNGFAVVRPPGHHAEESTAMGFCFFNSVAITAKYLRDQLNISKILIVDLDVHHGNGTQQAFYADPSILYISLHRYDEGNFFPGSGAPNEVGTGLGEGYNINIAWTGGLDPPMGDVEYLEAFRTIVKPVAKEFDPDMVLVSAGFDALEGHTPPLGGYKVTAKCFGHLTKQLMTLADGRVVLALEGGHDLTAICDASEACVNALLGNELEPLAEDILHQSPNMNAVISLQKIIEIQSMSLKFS
Histone deacetylase 1, sequence (Q13547 whole entry): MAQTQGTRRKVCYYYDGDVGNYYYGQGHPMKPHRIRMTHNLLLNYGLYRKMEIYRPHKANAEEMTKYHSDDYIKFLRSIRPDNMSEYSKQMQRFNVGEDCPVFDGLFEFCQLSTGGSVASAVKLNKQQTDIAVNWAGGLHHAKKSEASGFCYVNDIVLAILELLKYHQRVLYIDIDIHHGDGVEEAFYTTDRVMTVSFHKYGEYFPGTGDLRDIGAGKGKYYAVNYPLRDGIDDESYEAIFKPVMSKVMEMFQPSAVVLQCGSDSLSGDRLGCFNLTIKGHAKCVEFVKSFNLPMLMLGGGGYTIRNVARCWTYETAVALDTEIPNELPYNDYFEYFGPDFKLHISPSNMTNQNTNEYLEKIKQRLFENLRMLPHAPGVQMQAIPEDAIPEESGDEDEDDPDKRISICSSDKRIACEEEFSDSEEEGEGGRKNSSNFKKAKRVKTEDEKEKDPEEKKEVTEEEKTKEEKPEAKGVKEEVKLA

Row | Structure (SMILES) | IC50 (Histone deacetylase 1) [µM] | IC50 (Histone deacetylase 3) [µM] | IC50 (Histone deacetylase 9) [µM] | IC50 (Histone deacetylase 2) [µM]
1 | CCCCCCCC(=O)SCC/C=C/[C@@H]1CC(=O)NCc2nc(cs2)-c2nnn(n2)CC(=O)N[C@@H](C(C)C)C(=O)O1 | 7.42 | 3.99 | > 100 | 30.8
2 | CC(C)[C@@H]1NC(=O)Cn2nnc(n2)-c2csc(n2)CNC(=O)C[C@@H](/C=C/CCS)OC1=O | 0.1 | 0.031 | 34.6 | 0.224
3 | CCCCCCCC(=O)SCC/C=C/[C@@H]1CC(=O)NCc2nc(cs2)-c2nnnn2CC(=O)N[C@@H](C(C)C)C(=O)O1 |  | 10.4 | 18.4 | 25.1
4 | CC(C)[C@@H]1NC(=O)Cn2nnnc2-c2csc(n2)CNC(=O)C[C@@H](/C=C/CCS)OC1=O | 1.67 | 0.649 | 16.2 | 3.27
5 | CCCCCCCC(=O)SCC/C=C/[C@@H]1CC(=O)NCc2nc(cs2)-c2cn(nn2)CC(=O)N[C@@H](C(C)C)C(=O)O1 | 17.6 | 14 | 63.2 | 32.1
6 | CC(C)[C@@H]1NC(=O)Cn2cc(nn2)-c2csc(n2)CNC(=O)C[C@@H](/C=C/CCS)OC1=O | 2.35 | 0.885 | 32 | 3.88
7 | CCCCCCCC(=O)SCC/C=C/[C@@H]1CC(=O)NCc2nc(cs2)C2=N[C@@](C)(CS2)C(=O)N[C@@H](C(C)C)C(=O)O1 [LARGAZOLE] | 0.146 |  | 8.33 | 1.72
